Where a SMILES comes first, the peptide text is derived from it. [ ]: non-standard residue; d: D form.
Tests used:
[1] = tested on: MC38 tumor-bearing C57BL/6 mice; assay: Hematological toxicity in MC38 tumor-bearing mice; format: in vivo; conditions: 2 mg/kg i.p. every day two weeks versus miap301 400 μg every 3 days x5, day 14, n = 4 - 5
Protocol: anti-CD47. (A, B) MC38 tumor-bearing C57BL/6 mice were treated i.p. with 2 mg/kg pep-20-D12 every day for two weeks or 400μg anti -mouse CD47 antibody
(miap301) every 3 days for a total of 5 times, and normal saline or ratIg as the negative controls, respectively (n = 4 - 5). On day 14, hematologic parameters of red blood cell (A), hemoglobin (B) level were analyzed. Data are represented as means ± SEM. Statistical significance was determined by unpaired Student's t test.
111 Mouse toxicity assays
112 Normal C57BL/6 mice were injected s.c. with 2 mg/kg peptides or normal 113 saline as the negative control daily from day 1 to 14 (n = 5). On days 0 and 14, 114 mice blood samples were collected via retro-orbital bleed. For MC38 115 tumor-bearing mice, blood samples were collected after treatment (n = 4 - 5).
116 Hematologic and blood biochemical parameters were analyzed by ADVIA 117 2120i Hematology Analyzer (Siemens, Germany). […]
124 The 3D structure of pep-20 was predicted by pep-FOLD3. […] The ΔdAffinity 126 between pep-20 and pep-20-derived alanine substituation analogue peptides 127 were calculated by Ala-scanning of molecular operating environment (MOE, 128 Chemical Computing Group, CA), which was used to display the structure of 129 pep-20 and docking model of pep-20 and CD47 including interaction of […]

[2] = Pharmacokinetic assay in vivo; conditions: C57BL/6, mouse, plasma, iv, 40 mg/kg
Protocol: (§1) of pep-20 and pep- 20-D12. The plasma concentration-time curve of pep-20 (E) and
(§2) C57BL/6 mice with weight of 18-20 g were administrated with a single 141
(§3) centrifuged at 8000 rpm for 10 min at the indicated intervals. Plasma wa s 143
(§4) further mixed with 10% HClO4 at a ratio of 2∶1 (v/v) and centrifuged at 16,000 144

in vivo = conditions: C57BL/6, mouse, iv, 40 mg/kg
Protocol: as §1, §2, §3, §4

[3] = molecular target: T1, human CD47/SIRPα interaction (Homo sapiens, UniProt Q08722); assay: Blocking assay, human CD47 protein binding to CHO cells expressing human SIRPα (flow cytometry); conditions: blockade of peptides to hCD47 relative to parent pep-20, Table S4
T1 construct: Human or mouse CD47-IgV-Domain-hIg fusion proteins (20 nM, Sino Biological, China); purchased Sino Biological (hIg fusion); ACROBiosystems (biotinylated human CD47); host or cells: SIRPα partner: CHO cells stably expressing human SIRPα
Protocol: Human or mouse CD47-IgV-Domain-hIg fusion proteins (20 nM, Sino Biological, China), or biotinylated human CD47 protein (20 nM, ACROBiosystems, USA) was incubated with titrating concentrations of peptides or anti-human CD47 antibody (B6H12) in phosphate-buffered saline (PBS, pH 7.4) for 1 hour at 4°C. The mixture was incubated with human or mice SIRPα overexpressed Chinese hamster ovary cells for 30 min at 4°C, washed to remove unbound mixtures and phycoerythrin (PE)-conjugated goat anti-human IgG or PE-conjugated streptavidin was incubated (eBioscience, USA). Cells were then analyzed by flow cytometry (BD Biosciences, USA). The IC50 was determined from sigmoidal dose response curves illustrated by GraphPad Prism.

[4] = Peptide stability assay in 10% human serum; format: in vitro ADME; conditions: 200 μM peptide in normal saline, fresh human serum 10% vol/vol, 37°C, sampled 0 min to 48 h, RP-HPLC, triplicates
Protocol: proteolysis compared with parent pep-20. (A, B) Dose response curves of pep-20-D12 interfering CD47-Sirpα interaction. […]
peptide and serum were analyzed by RP-HPLC. Error bars indicate standard deviation of triplicates. Data are represented as means ± SEM. (E, F) The pharmacokinetic analysis […]
of pep-20 and pep- 20-D12.
Data are represented as means ± SEM. […]
human serum (10%, vol/vol).
8h, 24h, 36h and 48h. The acetonitrile-glacial acetic acid mixture was utilized 136 to terminate the enzymatic reaction. After centrifuged at 12000 rpm for 10 min, 137 […]
Pharmacokinetic assays in vivo 140 […]
intravenous dose of 40 mg/kg of peptides. Blood samples were collected an d 142 […]
rpm for 10 min. The supernatant was analyzed by RP-HPLC. The 145 pharmacokinetic parameters of peptides were determined by 146 noncompartmental analysis (NCA) using Phoenix WinNonlin software program 147 5.2.1 (Certara, Princeton, USA). The maximum plasma concentration Cmax and 148 elimination half-life (T1/2) were calculated. 149

T1 sequence (Q08722 19-127 limits assumed): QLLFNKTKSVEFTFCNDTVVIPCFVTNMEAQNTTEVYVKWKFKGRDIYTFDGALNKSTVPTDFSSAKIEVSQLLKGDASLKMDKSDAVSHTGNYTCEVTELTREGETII

C[C@H](NC(=O)[C@@H](CO)NC(=O)[C@@H](Cc1c[nH]c2ccccc12)NC(=O)[C@@H](C)N)C(=O)N[C@H](C(=O)N[C@@H](Cc1c[nH]c2ccccc12)C(=O)N[C@@H](CO)C(=O)N[C@@H](CC(N)=O)C(=O)N[C@@H](Cc1ccc(O)cc1)C(=O)N[C@H](Cc1c[nH]c2ccccc12)C(=O)N[C@H](CCCNC(=N)N)C(=O)N[C@H](Cc1c[nH]cn1)C(=O)O)[C@@H](C)O [pep-20-D12] (H-[dA][dW][dS]ATWSNY[dW][dR][dH]-OH)
Blood toxicity (red blood cell, hemoglobin) compared with anti-CD47 antibody [1]: less blood toxicity
Cmax [2]: 54.5 µg/mL
half-life (in vivo): 6.36 h
Blocking rate relative to pep-20 (%) [3]: 105%
Time for which the initial concentration was retained in human serum [4]: up to 36 hours
